From patent US7935182B2, “Solution for wood preservation” (priority 2004, dated 2011) come the findings set out here.

A short description of the series: copper leaching from wood impregnated with preservative solution. Format: physicochemical.

The structures appear in SMILES notation.

Regarding `O=S(=O)([O-])[O-].[Cu+2]` [Copper (II) sulphate], for the setting “wood treated with copper based preservative solution”, the “Copper leached in %” value is recorded as 45-55%^.
As for `NCCO` [ethanolamine], the “copper leaching rates compared to diethanolamine or triethanolamine” value (wood impregnated with preservative solution, ethanolamine used as amine source) is “Almost ten times lowest”.
